{"source": "ChEMBL document CHEMBL1150221", "about": "“Isolation and structure determination of nostocyclopeptides A1 and A2 from the terrestrial cyanobacterium Nostoc sp. ATCC53789” (J Nat Prod, 2001)", "key": {"KB": {"test_system": "KB", "assay": "Cytotoxicity against human KB cells", "type": "functional, cell-based"}, "LoVo": {"test_system": "LoVo", "assay": "Cytotoxicity against human LoVo cells", "type": "functional, cell-based"}, "Candida albicans": {"test_system": "Candida albicans", "assay": "Antifungal activity against Candida albicans at 25 ug/disk", "type": "functional, organism-based"}, "Pseudomonas aeruginosa": {"test_system": "Pseudomonas aeruginosa", "assay": "[…] activity against Pseudomonas aeruginosa at 25 ug/disk", "type": "functional, organism-based"}, "[1]": {"test_system": "Mycobacterium tuberculosis", "assay": "[…] activity against Mycobacterium tuberculosis 25177 at 25 ug/disk", "type": "functional, organism-based"}, "[2]": {"test_system": "Mycobacterium tuberculosis", "assay": "[…] activity against Mycobacterium tuberculosis 35818 at 25 ug/disk", "type": "functional, organism-based"}, "[3]": {"assay": "Inhibition of protease"}, "[4]": {"assay": "Inhibition of trypsin"}, "[5]": {"assay": "Inhibition of chymotrypsin"}, "Plasminogen": {"target": "Plasminogen (Homo sapiens, UniProt P00747)", "sequence (P00747 97-580 limits assumed)": "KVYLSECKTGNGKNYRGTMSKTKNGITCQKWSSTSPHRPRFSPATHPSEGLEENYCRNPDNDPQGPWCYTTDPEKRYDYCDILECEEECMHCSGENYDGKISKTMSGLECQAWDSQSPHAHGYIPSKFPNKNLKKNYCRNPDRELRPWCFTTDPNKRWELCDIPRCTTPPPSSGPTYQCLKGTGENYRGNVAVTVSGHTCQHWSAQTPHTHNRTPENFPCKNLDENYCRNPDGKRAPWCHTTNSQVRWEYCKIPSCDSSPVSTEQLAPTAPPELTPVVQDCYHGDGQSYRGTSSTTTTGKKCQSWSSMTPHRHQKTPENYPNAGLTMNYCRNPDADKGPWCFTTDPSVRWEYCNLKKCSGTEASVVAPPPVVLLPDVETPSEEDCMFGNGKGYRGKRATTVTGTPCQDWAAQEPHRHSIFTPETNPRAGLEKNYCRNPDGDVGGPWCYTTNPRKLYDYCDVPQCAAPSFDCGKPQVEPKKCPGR", "sequence (P00747 581-810 limits assumed)": "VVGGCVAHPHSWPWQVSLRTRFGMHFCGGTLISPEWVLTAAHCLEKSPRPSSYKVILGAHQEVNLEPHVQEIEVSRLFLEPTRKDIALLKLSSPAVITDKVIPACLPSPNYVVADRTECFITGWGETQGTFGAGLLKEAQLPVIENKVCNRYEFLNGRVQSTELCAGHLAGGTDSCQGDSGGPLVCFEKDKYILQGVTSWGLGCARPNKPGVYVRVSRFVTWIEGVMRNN", "assay": "Inhibition of plasmin"}, "[6]": {"assay": "Inhibition of elastase"}, "Papain": {"target": "T1, Papain (Carica papaya, UniProt P00784)", "T1 sequence (P00784 whole entry)": "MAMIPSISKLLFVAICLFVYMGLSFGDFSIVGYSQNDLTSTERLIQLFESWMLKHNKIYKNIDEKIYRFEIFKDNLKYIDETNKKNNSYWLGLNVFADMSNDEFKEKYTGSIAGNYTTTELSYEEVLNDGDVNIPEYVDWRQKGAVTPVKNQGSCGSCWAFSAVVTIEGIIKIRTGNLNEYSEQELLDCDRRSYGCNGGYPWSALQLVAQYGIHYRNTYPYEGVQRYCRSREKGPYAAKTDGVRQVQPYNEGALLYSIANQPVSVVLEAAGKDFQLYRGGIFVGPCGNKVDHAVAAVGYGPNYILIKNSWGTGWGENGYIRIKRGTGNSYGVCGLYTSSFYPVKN", "assay": "Inhibition of papaya papain"}, "Prothrombin": {"target": "Prothrombin (Homo sapiens, UniProt P00734)", "assay": "Inhibition of thrombin"}}, "note": "The source made the active and inactive calls. The calls are words filed in the database; no cut-off is given here."}
{"smiles": "CC[C@H](C)[C@@H]1NC(=O)[C@@H](CCC(N)=O)NC(=O)CNC(=O)[C@H](Cc2ccc(O)cc2)/N=C/[C@H](CC(C)C)NC(=O)[C@@H]2C[C@H](C)CN2C(=O)[C@H](CO)NC1=O", "note": "[NOSTOCYCLOPEPTIDE A1]", "values": [{"measurement": "IC50", "setting": "KB", "value": 1, "unit": "µM"}, {"measurement": "IC50", "setting": "LoVo", "value": 1, "unit": "µM"}, {"measurement": "Activity", "setting": "Candida albicans", "value": "inactive"}, {"measurement": "Activity", "setting": "Pseudomonas aeruginosa", "value": "inactive"}, {"measurement": "Activity", "setting": "[1]", "value": "inactive"}, {"measurement": "Activity", "setting": "[2]", "value": "inactive"}, {"measurement": "Activity", "setting": "[3]", "value": "inactive"}, {"measurement": "IC50", "setting": "[4]", "value": "> 50", "unit": "µM"}, {"measurement": "IC50", "setting": "[5]", "value": "< 25", "unit": "µM"}, {"measurement": "IC50", "setting": "Plasminogen", "value": "> 50", "unit": "µM"}, {"measurement": "IC50", "setting": "[6]", "value": "< 25", "unit": "µM"}, {"measurement": "IC50", "setting": "Papain", "value": "< 25", "unit": "µM"}, {"measurement": "IC50", "setting": "Prothrombin", "value": "> 50", "unit": "µM"}]}
{"smiles": "CC[C@H](C)[C@@H]1NC(=O)[C@@H](CCC(N)=O)NC(=O)CNC(=O)[C@H](Cc2ccc(O)cc2)/N=C/[C@H](Cc2ccccc2)NC(=O)[C@@H]2C[C@H](C)CN2C(=O)[C@H](CO)NC1=O", "note": "[NOSTOCYCLOPEPTIDE A2]", "values": [{"measurement": "IC50", "setting": "KB", "value": 1, "unit": "µM"}, {"measurement": "IC50", "setting": "LoVo", "value": 1, "unit": "µM"}, {"measurement": "Activity", "setting": "Candida albicans", "value": "inactive"}, {"measurement": "Activity", "setting": "Pseudomonas aeruginosa", "value": "inactive"}, {"measurement": "Activity", "setting": "[1]", "value": "inactive"}, {"measurement": "Activity", "setting": "[2]", "value": "inactive"}, {"measurement": "Activity", "setting": "[3]", "value": "inactive"}, {"measurement": "IC50", "setting": "[4]", "value": "> 50", "unit": "µM"}, {"measurement": "IC50", "setting": "[5]", "value": "< 25", "unit": "µM"}, {"measurement": "IC50", "setting": "Plasminogen", "value": "> 50", "unit": "µM"}, {"measurement": "IC50", "setting": "[6]", "value": "< 25", "unit": "µM"}, {"measurement": "IC50", "setting": "Papain", "value": "< 25", "unit": "µM"}, {"measurement": "IC50", "setting": "Prothrombin", "value": "> 50", "unit": "µM"}]}
